# Measurements from patent publication US20230024584A1, “ANTI-CANCER COMPOSITIONS AND METHODS” (University of Kentucky Research Foundation, priority 2019, published 2023).
# Experiments:
# Assay type in all cases: cell-based
# [1] = test system: SUM159, LM2, MCF-7, 4T1, 4T1luc and MDA-MB-453 cells; test: Clonogenic assay, breast cancer cell lines; conditions: 1.25, 2.5 or 5 μM for 72 h, then 10 days culture
# Experimental: Clonogenic assays were also performed to determine the effect of lomitapide treatment on various breast cancer cell lines, with data reflected in FIGS. 22A-22G. Initially, 100 SUM159, LM2, MCF-7, 4T1 or 4T1^luc cells, or 1000 MDA-MB-453 cells were seeded into 6-cm cell culture dishes. After overnight culture, vehicle control (DMSO) or lomitapide (final concentration: 1.25, 2.5 or 5 μM) were added into the corresponding dishes. After 72 h culture, the DMSO- or lomitapide-containing media were removed and the fresh culture media were added in followed by additional 10 days culture. The culture media were replaced with fresh media every three days. At the end of cell culture, the final clones in dishes were fixed by 4% paraformaldehyde and stained with crystal violet. FIG. 22A includes representative images from each treatment groups, and FIGS. 22B-22G include the quantitation of clone numbers (mean standard deviation, n=3). * p<0.05, compared to vehicle control (negative control) treatment group.
# [2] = test system: SUM159, MCF-7 and MDA-MB-453 cells; test: Soft agar colony formation assay, breast cancer cell lines; conditions: 1.25, 2.5 or 5 μM, 1 month culture
# Experimental: With reference to FIGS. 23A-23D, soft agar colony formation assays were also performed. Initially, 1000 SUM159 or MCF-7 cells, 10000 MDA-MB-453 cells were seeded into the upper agar of each dish; meanwhile, vehicle control (DMSO) or lomitapide (final concentration: 1.25, 2.5 or 5 μM) were added into the upper agar of corresponding dishes. After 1 month continuous culture, the final colonies formed in the agar were fixed by methanol and stained with crystal violet. FIG. 23A includes representative soft agar images from each treatment groups. FIGS. 23B-23D include the quantitation of soft agar clone numbers (mean standard deviation, n=3). * p<0.05, compared to vehicle control (negative control) treatment group.
# [3] = test system: PC9, H1975, PC9GR4, H460 and A549 cells; test: MTT assay, lung cancer cell lines; conditions: 1.25, 2.5 and 5 μM; 24, 48, 72 h
# Experimental: FIGS. 27A-27E include the results of studies to determine the effect of lomitapide treatment on lung cancer cell growth of various cell lines as determined by MTT assay. Initially, 1000 PC9, H1975, PC9GR4, H460, or A549 cells were seeded into 96-well plates. After overnight culture, vehicle (DMSO) or lomitapide (final concentration: 1.25, 2.5 and 5 μM) were added into the corresponding wells. After 24 h, 48 h and 72 h incubation, the culture media were aspirated off and 50 μL of 0.5 mg/mL of MTT containing medium was added into each well. After 3h incubation, 200 μl of DMSO were added into each well. The OD value of each well was read under the wavelength of 570 nm. The results are presented as mean±standard deviation (n=6) * p<0.05, compared to vehicle control (negative control) treatment group.
# [4] = test system: DLD1, PT130 and SW480 cells; test: Clonogenic assay, colon cancer cell lines; conditions: 1.25, 2.5 or 5 μM for 72 h, then 10 days culture
# Experimental: Initially, 100 DLD1, PT130 or SW480 cells were seeded into 6-cm cell culture dishes. After overnight culture, vehicle control (DMSO) or lomitapide (final concentration: 1.25, 2.5 or 5 μM) were added into the corresponding dishes. After 72 h culture, the DMSO- or lomitapide-containing media were removed and the fresh culture media were added in followed by additional 10 days culture. The culture media were replaced with fresh media every three days. At the end of cell culture, the final clones in dishes were fixed by 4% paraformaldehyde and stained with crystal violet. FIG. 32A includes representative images from each treatment groups. FIGS. 32B-32D include quantitation of clone numbers (mean±standard deviation, n=3). * p<0.05, compared to vehicle control (negative control) treatment group.
substance,measurement,setting,value
lomitapide,breast cancer cell growth (clone numbers),[1],significantly reduces breast cancer cell growth
same,breast cancer cell growth (soft agar clone numbers),[2],significantly reduces breast cancer cell growth
same,lung cancer cell growth (MTT),[3],significantly reduces lung cancer cell growth
same,colon cancer cell growth (clone numbers),[4],significantly reduces colon cancer cell growth
